Experimental data from article PMC9822434, “Estradiol-Based Salicylaldehyde (Thio)Semicarbazones and Their Copper Complexes with Anticancer, Antibacterial and Antioxidant Activities” (Molecules, 2022).
pIC50: −log10 of the molar value.

Experiment: DPPH free radical scavenging assay
Conditions: for % Scavenging Effect: DPPH:compound = 1:1 ratio after 30 min, ethanol; for pIC50: in ethanol, T = 25 °C, cDPPH = 50 µM, ccompound = 5−50 µM
Experimental: The DPPH (Sigma-Aldrich) free radical scavenging capacity was studied at 25.0 ± 0.1 °C on an Agilent Cary 3500 spectrophotometer with tightly closed tandem cuvette according to our approach with some modifications. The stock solution of DPPH (100 µM) was prepared in ethanol, and 0.5 mL of this solution was added to one pocket of the cuvette and 0.5 mL of the tested compound in different concentrations in ethanol was added to another. The final concentration of the studied compounds was in the range 5–50 µM, where for DPPH concentration, it was always 50 µM. A standard compound Trolox (Sigma-Aldrich) was used as a positive control. The percentage of the antioxidant activity (AA), IC50 values (the concentration of compound at which it reduced 50% of DPPH) and Trolox equivalent antioxidant capacity (TEAC) were calculated.

| Compound | % Scavenging Effect (25 °C) [%] | pIC50 | TEAC (Trolox equivalent antioxidant capacity) (DPPH assay in ethanol, 25 °C) |
| --- | --- | --- | --- |
| C[C@]12CC[C@@H]3c4ccc(O)cc4CC[C@H]3[C@@H]1CC[C@@H]2O [estradiol] | 0.5 | < 4.30 |  |
| Cc1c(C)c2c(c(C)c1O)CCC(C)(C(=O)O)O2 (centres unmarked) [Trolox, 6-hydroxy-2,5,7,8-tetramethylchroman-2-carboxylic acid, reference compound] | 100 | 4.92 | 1 |
